Experiments:
Assay type in all cases: in vivo
[1] = test system: barnyardgrass (Echinochloa crus-galli L.): ECHCG; test: Test Example 1 pre-emergence herbicidal activity, ECHCG; conditions: Rate 63 g a.i./ha, visually observed 20th to 23rd day after application
How it was run: (§1)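 pots, upland field soil; sow; +1 d spray compound (WP or EC, a.i. at set dose, 500 L/ha water), pre-emergence; visual % growth control d20–23 (0 untreated, 100 complete kill).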

[2] = test system: crabgrass (Digitaria sanguinalis L.): DIGSA; test: Test Example 1 pre-emergence herbicidal activity, DIGSA; conditions: Rate 63 g a.i./ha, visually observed 20th to 23rd day after application
How it was run: as §1

[3] = test system: green foxtail (Setaria viridis L.): SETVI; test: Test Example 1 pre-emergence herbicidal activity, SETVI; conditions: Rate 63 g a.i./ha, visually observed 20th to 23rd day after application
How it was run: as §1

[4] = test system: redroot pigweed (Amaranthus retroflexus L.): AMARE; test: Test Example 1 pre-emergence herbicidal activity, AMARE; conditions: Rate 63 g a.i./ha, visually observed 20th to 23rd day after application
How it was run: as §1

[5] = test system: prickly sida (Sida spinosa L.): SEDSP; test: Test Example 1 pre-emergence herbicidal activity, SIDSP; conditions: Rate 63 g a.i./ha, visually observed 20th to 23rd day after application
How it was run: as §1

[6] = test system: velvetleaf (Abutilon theophrasti): ABUTH; test: Test Example 1 pre-emergence herbicidal activity, ABUTH; conditions: Rate 63 g a.i./ha, visually observed 20th to 23rd day after application
How it was run: as §1

[7] = test system: rice (Oryza sativa L.): ORYSA; test: Test Example 1 pre-emergence herbicidal activity, ORYSA; conditions: Rate 63 g a.i./ha, visually observed 20th to 23rd day after application
How it was run: as §1

[8] = test system: wheat (Triticum aestivum L.): TRZAX; test: Test Example 1 pre-emergence herbicidal activity, TRZAX; conditions: Rate 63 g a.i./ha, visually observed 20th to 23rd day after application
How it was run: as §1

[9] = test system: corn (Zea mays L.): ZEAMX; test: Test Example 1 pre-emergence herbicidal activity, ZEAMX; conditions: Rate 63 g a.i./ha, visually observed 20th to 23rd day after application
How it was run: as §1

[10] = test system: soybean (Glycine max Merr.): GLXMA; test: Test Example 1 pre-emergence herbicidal activity, GLXMA; conditions: Rate 63 g a.i./ha, visually observed 20th to 23rd day after application
How it was run: as §1

[11] = test system: barnyardgrass (Echinochloa crus-galli L.), ECHCG; test: Test Example 2 post-emergence (foliage treatment) herbicidal activity, ECHCG; conditions: 63 g a.i./ha
Description: (§2) Upland field soil was put into a 1/170,000 ha pot, and seeds of various plants were sown. Then, when the plants reached predetermined leaf stages {1. barnyardgrass (Echinochloa crus-galli L.), ECHCG: 1.1-2.1 leaf stage, 2. crabgrass (Digitaria sanguinalis L.), DIGSA: 1.0-2.0 leaf stage, 3. green foxtail (Setaria viridis L.), SETVI: 1.0-2.2 leaf stage, 4. redroot pigweed (Amaranthus retroflexus L.), AMARE: 0.1-1.5 leaf stage, 5. prickly sida (Sida spinosa L.), SIDSP: 0.1-0.6 leaf stage, 6. velvetleaf (Abutilon theophrasti), ABUTH: 0.1-0.6 leaf stage, 7. common cocklebur (Xanthium strumarium L.), XANST: 0.1 leaf stage, 8. rice (Oryza sativa L.), ORYSA; 1.0-2 leaf stage, 9. wheat (Triticum aestivum L.), TRZAX: 2.3-3.5 leaf stage, 10. corn (Zea mays L.), ZEAMXN 2.1-2.6 leaf stage, 11. soybean (Glycine max Merr.), GLXMA: primary leaf stage}, a wettable powder or emulsifiable concentrate having the compound of the present invention formulated in accordance with a usual formulation method, was weighed so that the active ingredient would be a predetermined amount, and diluted with water in an amount of 500 L/ha. To the diluted solution, 0.1% (v/v) of an agricultural spreader was added. The herbicide adjusted was applied by a small size sprayer for foliage treatment. On the 20th to 23rd day after the application of the herbicide, the growth of the respective plants was visually observed, and the herbicidal effects were evaluated by growth controlling degrees (%) ranging from 0 (equivalent to the untreated control) to 100 (complete kill), whereby the results shown in Table 5, were obtained. Compound Nos. in Table 5 correspond to Compound Nos. in Table 1 and 2 given hereinbefore.

[12] = test system: crabgrass (Digitaria sanguinalis L.), DIGSA; test: Test Example 2 post-emergence (foliage treatment) herbicidal activity, DIGSA; conditions: 63 g a.i./ha
Description: as §2

[13] = test system: green foxtail (Setaria viridis L.), SETVI; test: Test Example 2 post-emergence (foliage treatment) herbicidal activity, SETVI; conditions: 63 g a.i./ha
Description: as §2

[14] = test system: redroot pigweed (Amaranthus retroflexus L.), AMARE; test: Test Example 2 post-emergence (foliage treatment) herbicidal activity, AMARE; conditions: 63 g a.i./ha
Description: as §2

[15] = test system: velvetleaf (Abutilon theophrasti), ABUTH; test: Test Example 2 post-emergence (foliage treatment) herbicidal activity, ABUTH; conditions: 63 g a.i./ha
Description: as §2

[16] = test system: rice (Oryza sativa L.), ORYSA; test: Test Example 2 post-emergence (foliage treatment) herbicidal activity, ORYSA; conditions: 63 g a.i./ha
Description: as §2

[17] = test system: wheat (Triticum aestivum L.), TRZAX; test: Test Example 2 post-emergence (foliage treatment) herbicidal activity, TRZAX; conditions: 63 g a.i./ha
Description: as §2

[18] = test system: corn (Zea mays L.), ZEAMX; test: Test Example 2 post-emergence (foliage treatment) herbicidal activity, ZEAMX; conditions: 63 g a.i./ha
Description: as §2

[19] = test system: soybean (Glycine max Merr.), GLXMA; test: Test Example 2 post-emergence (foliage treatment) herbicidal activity, GLXMA; conditions: 63 g a.i./ha
Description: as §2

| SMILES | Pre-emergence Herbicidal Activity ECHCG (growth controlling degree) [1] [%] | Pre-emergence Herbicidal Activity DIGSP (growth controlling degree) [2] [%] | Pre-emergence Herbicidal Activity SETVI (growth controlling degree) [3] [%] | Pre-emergence Herbicidal Activity AMARE (growth controlling degree) [4] [%] | Pre-emergence Herbicidal Activity SIDSP (growth controlling degree) [5] [%] | Pre-emergence Herbicidal Activity ABUTH (growth controlling degree) [6] [%] | Pre-emergence Herbicidal Activity ORYSA (growth controlling degree) [7] [%] | Pre-emergence Herbicidal Activity TRZAX (growth controlling degree) [8] [%] | Pre-emergence Herbicidal Activity ZEAMX (growth controlling degree) [9] [%] | Pre-emergence Herbicidal Activity GLXMA (growth controlling degree) [10] [%] | growth controlling degree, ECHCO [11] [%] | growth controlling degree, DIGSP [12] [%] | growth controlling degree, SETVI [13] [%] | growth controlling degree, AMARE [14] [%] | growth controlling degree, ABUTH [15] [%] | growth controlling degree, ORYSA [16] [%] | growth controlling degree, TRZAX [17] [%] | growth controlling degree, ZEAMX [18] [%] | growth controlling degree, GLXMA [19] [%] |
| --- | --- | --- | --- | --- | --- | --- | --- | --- | --- | --- | --- | --- | --- | --- | --- | --- | --- | --- | --- |
| COc1c(Cl)cc(F)c(-c2nn(C)c(OC(F)F)c2Cl)c1NC(=O)C1CC1 [Compound 1-264] | 100 | 100 | 60 | 100 | 100 | 80 | 50 | 20 | 0 | 0 | 80 | 100 | 100 | 100 | 100 | 80 | 40 | 50 | 70 |
| COc1c(Cl)cc(F)c(-c2nn(C)c(OC(F)F)c2Cl)c1NC(=O)CCC1CCCCC1 [Compound 1-259] | 10 | 20 | 30 | 100 | 30 | 0 | 0 | 10 | 0 | 0 | 50 | 30 | 50 | 100 | 100 | 10 | 0 | 0 | 10 |
| CCOC(=O)C(C)Nc1c(OC)c(Cl)cc(F)c1-c1nn(C)c(OC(F)F)c1Cl (stereo not drawn) [Compound 1-76] | 60 | 100 | 60 | 100 | 60 | 40 | 10 | 0 | 0 | 0 | 100 | 70 | 80 | 100 | 100 | 80 | 40 | 90 | 70 |

From patent publication US20050245399A1, “Pyrazole derivatives as herbicidal compositions containing them” (ISHIHARA SANGYO KAISHA, LTD., priority 2004, published 2005)
